What all share (settings): result in words, no method or number given
The target in one assay is mGluR3 (Homo sapiens, UniProt Q14832). Kind of assay: Agonist activity at the Group 2 receptor mGluR3.
The next assay deals with mGluR2 (Homo sapiens, UniProt Q14416). The assay can be described thus: Antagonist activity at mGluR2.
A further assay relates to Group 1 mGluRs. Kind of assay: Effect on Group 1 mGluRs.
The next assay concerns Group 3 mGluRs. Kind of assay: Effect on Group 3 mGluRs.

Chain of mGluR3 (Q14832 23-879): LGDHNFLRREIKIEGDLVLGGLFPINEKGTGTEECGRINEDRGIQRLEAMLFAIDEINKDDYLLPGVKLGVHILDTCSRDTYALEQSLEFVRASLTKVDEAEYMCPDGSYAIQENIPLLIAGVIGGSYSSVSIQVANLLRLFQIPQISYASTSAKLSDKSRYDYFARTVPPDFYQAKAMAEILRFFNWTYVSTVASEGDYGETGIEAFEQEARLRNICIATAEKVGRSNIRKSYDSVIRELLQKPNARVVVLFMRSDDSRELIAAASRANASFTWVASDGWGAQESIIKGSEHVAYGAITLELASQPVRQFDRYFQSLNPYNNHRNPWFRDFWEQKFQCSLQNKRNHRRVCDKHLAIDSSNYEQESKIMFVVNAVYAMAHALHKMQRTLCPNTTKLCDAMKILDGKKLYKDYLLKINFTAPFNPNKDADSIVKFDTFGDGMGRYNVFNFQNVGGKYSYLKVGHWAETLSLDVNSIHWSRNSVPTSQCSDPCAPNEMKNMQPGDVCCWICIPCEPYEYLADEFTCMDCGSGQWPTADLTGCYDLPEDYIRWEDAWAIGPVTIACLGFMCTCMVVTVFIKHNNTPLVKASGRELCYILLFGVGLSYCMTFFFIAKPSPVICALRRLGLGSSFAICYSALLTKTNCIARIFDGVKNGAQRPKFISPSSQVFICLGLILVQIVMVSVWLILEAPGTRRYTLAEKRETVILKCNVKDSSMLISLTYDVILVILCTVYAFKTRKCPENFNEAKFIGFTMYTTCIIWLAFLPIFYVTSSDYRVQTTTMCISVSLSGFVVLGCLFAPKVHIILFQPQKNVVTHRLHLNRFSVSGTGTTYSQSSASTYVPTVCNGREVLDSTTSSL
Chain of mGluR2 (Q14416 19-872): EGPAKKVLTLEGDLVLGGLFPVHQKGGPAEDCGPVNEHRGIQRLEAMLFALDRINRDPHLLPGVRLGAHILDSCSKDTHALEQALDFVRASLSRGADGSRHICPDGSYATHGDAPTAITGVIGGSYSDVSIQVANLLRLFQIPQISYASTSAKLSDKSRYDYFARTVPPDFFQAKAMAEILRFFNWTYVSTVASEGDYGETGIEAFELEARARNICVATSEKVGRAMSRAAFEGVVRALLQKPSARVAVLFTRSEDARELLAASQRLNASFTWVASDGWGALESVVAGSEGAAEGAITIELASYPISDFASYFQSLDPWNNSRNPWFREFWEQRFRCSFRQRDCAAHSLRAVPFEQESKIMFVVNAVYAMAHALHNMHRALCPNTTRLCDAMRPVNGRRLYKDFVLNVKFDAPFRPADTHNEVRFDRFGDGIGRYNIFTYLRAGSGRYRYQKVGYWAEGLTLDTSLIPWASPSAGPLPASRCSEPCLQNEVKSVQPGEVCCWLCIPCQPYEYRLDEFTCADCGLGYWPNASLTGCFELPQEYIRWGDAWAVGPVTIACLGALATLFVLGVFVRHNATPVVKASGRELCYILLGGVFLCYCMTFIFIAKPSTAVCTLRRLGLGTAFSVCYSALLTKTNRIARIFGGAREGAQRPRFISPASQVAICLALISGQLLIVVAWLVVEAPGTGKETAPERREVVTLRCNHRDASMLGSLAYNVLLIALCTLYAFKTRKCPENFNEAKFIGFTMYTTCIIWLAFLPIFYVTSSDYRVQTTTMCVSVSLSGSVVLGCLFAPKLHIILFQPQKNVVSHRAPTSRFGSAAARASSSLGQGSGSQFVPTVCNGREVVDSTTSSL

For `N[C@@](CO)(CCC(=O)O)C(=O)O` [Compound 1, (R)-2(Hydroxymethyl)glutamic acid], on mGluR3, the “activity at the Group 2 receptor mGluR3” value is listed as “relatively potent agonist”. The “activity at mGluR2” value at mGluR2 is on record as “weak antagonist”. The “effect on the Group 1 mGluRs” value in the assay with Group 1 mGluRs is “little or no effect”. Also, the “effect on the Group 3 mGluRs” value in the assay on Group 3 mGluRs is on record as “little or no effect”.

The values are drawn from patent US6599940B2, “Synthesis of 2-hydroxymethylglutamic acid and congeners thereof” (Georgetown University, priority 2000, dated 2003).
